Measured values from PMC12518693, “Potent Fluorescent Probe for Target‐Engagement Studies of Allosteric Pyruvate Kinase Modulators” (Angewandte Chemie (International Ed. in English), 2025).
Marks after values point to notes of the source that are not given here.

Assays:
PKM2 [1] = molecular target: T1, PKM2 (Homo sapiens, UniProt P14618); test: Recombinant PKM2 activity assay (Kinase-Glo MAX); type: biochemical; design: made in house; conditions: for PKM2 E max: recombinant PKM2; for EC50: recombinant PKM2 10 nM, 15 min pre-incubation, PEP 0.1 mM, ADP 0.2 mM
Protocol: As these compounds were binding to a known allosteric site on PK, the effects of ligands I–IV on the enzymatic activities of PKL and PKM2 were determined (Figure S2). The two isozymes were incubated with increasing concentrations of compounds before the addition of substrates PEP and adenosine diphosphate (ADP), and the reactions were monitored using a Kinase‐Glo MAX assay.
(§1) Figure S2. Effects of ligands I-IV on recombinant PK activities. PKL or PKM2 (10 nM) were pre-incubated with the compounds (0-100 µM) for 15 min following the addition of PEP (0.1 mM) and ADP (0.2 mM). The reactions were terminated by the addition of Kinase Glo-MAX reagent after 10 min, and the luminescence from each reaction was quantified using a plate reader. The activity values are expressed as a percentage of PK activity of the DMSO control. The potencies were calculated by best fit of the Hill equation to the luminescence data.^[2] (A) PKL titrations. (B) PKM2 titrations. Error bars represent the ±SE of replicates (n = 3).

PKL [2] = molecular target: T2, PKL (Homo sapiens, UniProt P30613); test: Surface plasmon resonance, PKL; conditions: for koff: read-out: k off SPR (PKL); for kon: read-out: k on SPR (PKL)
Protocol: The surface was washed with 10 mM NaOH, 1M NaCl followed by immobilization of protein before subsequent deactivation by 1 M ethanolamine. Immobilization levels were typically 12000-16000 RU. The reference spot was treated as described, omitting the injection of PKL. Compound concentration series was injected over the immobilized protein in increasing concentrations using multi cycle (MCK) or single cycle kinetics (SCK) in running buffer (10 mM HEPES, 150 mM NaCl, 0.05% Tween20, 0.3% DMSO, pH 7.4). A 1:1 Langmuir interaction model is fitted to the experimental traces, enabling determination of kon, koff and Kd.

PKM2 [3] = molecular target: T1, PKM2; test: Surface plasmon resonance, PKM2; conditions: for K D (SPR, PKM2): 20 °C
PKL [4] = molecular target: T2, PKL; test: HepG2 PKM2 KO cell lysate PKL activity assay; conditions: HepG2 PKM2 KO cells, 48 h, mean ± SE n=3
Protocol: These predominantly express PKL.
HepG2 PKM2 KO cells (Synthego) were plated in 6 well plates at cell densities of 2 x 10^5 cells/well and incubated for 24 h at 37 °C and 5% CO2. Compounds were added to the cells in different concentrations (0.1, 1, 10 µM) and the cells were further incubated for 48 h. The control cells received DMSO as vehicle.
Cells were washed with PBS, lysed on ice with 200 µL/well PK assay buffer. […] Pyruvate kinase (PK) activity of the cell lysates (10 µg total protein) was analyzed by using the PK assay kit from abcam (ab83432) according to manufacturer´s instructions. The PKL activity in the cell lysates treated with the compounds was expressed as a percentage of the PK activity in the vehicle.

PKL [5] = molecular target: T2, PKL; test: Recombinant PKL activity assay (Kinase-Glo MAX); type: biochemical; design: co-crystallisation of full-length PKL (including the B-domain); 8xHis (TEV-cleavable) (N, cleaved yes); made in house; host or cells: E. coli T7 Express (NEB), pExp-NHis plasmid; conditions: for EC50: recombinant PKL 10 nM, 15 min pre-incubation, PEP 0.1 mM, ADP 0.2 mM; for PKL E max: recombinant PKL, above 100% activation, below 100% inhibition
Protocol: The two isozymes were incubated with increasing concentrations of compounds before the addition of substrates PEP and adenosine diphosphate (ADP), and the reactions were monitored using a Kinase‐Glo MAX assay.
as §1, with “Effects of ligands I-IV on recombinant PK activities. PKL or PKM2 (10 nM) were pre-incubated with the compounds (0-100 µM) for 15 min following the addition of PEP (0.1 mM) and ADP (0.2 mM).” left out
The reaction mixture contained 0.2 mM ADP, 0.1 mM PEP, 5 nM PKL, 1% DMSO, and test compounds at concentrations ranging from 0 to 1 mM across 12 titration points. Prior to substrate addition, PKL and test compounds were pre-incubated for 15 minutes.
After the reaction, 5 µL of Kinase-Glo Max reagent was added to each well. […] For each data set, luminescence from the DMSO control was set as 100% activity, and luminescence from the protein blank (no PKL) as 0% activity. Percentage activity (E%) was calculated using the equation: […]
Titration data was fitted to the Hill equation in Origin to determine EC₅₀ values.

Solubility = type: physicochemical
PKLNluc = PKLNluc (Homo sapiens, UniProt P30613); test: Live-cell NanoBRET assay in HEK293 cells; type: cell-based; design: host or cells: HEK293, transient transfection; conditions: 20 nM tracer IV
Protocol: To investigate the intracellular interaction of tracer IV with PKLNluc, we prepared a mammalian expression construct, fusing Nluc to the N‐terminus of PKL. […] As a negative control for NanoBRET experiments, a construct expressing Nluc alone (without PKL) was also prepared.
Additionally, cell viability assays were conducted on cells transfected with either PKLNluc or Nluc plasmids and incubated with tracer IV (Figure S4b,c).
HEK293 cells were passed one day before transfection. The concentration of cells was adjusted to 2x10^5 cells/ml in Opti-MEM™ without phenol red (Invitrogen) supplemented with 1% FBS (Hyclone). Cells (4x10^6) were reversed transfected with 1 µg of PKLNluc plasmid or 1 µg Nluc plasmid and 9 µg of carrier DNA (Promega) using 30 µL of Fugene HD transfection reagent (Promega). […] Work solutions (100x) of tracer IV were prepared from DMSO stocks and further diluted to 20x concentrations with Tracer buffer (Promega). Twenty-five hours after transfection, the cells were treated with 5 µL/well of each of 20x concentrations of the tracer (final concentrations in the assay were in the range 0.001-1 µM, depending on the experiment). Thereafter, 10 µL of 10x solutions of competitors (diluted in Opti-MEM™ medium from stocks of 100x prepared in DMSO) were added to some sets of cells, while the other set received only Opti-MEM™ containing 1% DMSO. The cells were incubated for 2 h at 37°C (5% CO2). […] For each sample well, BRET ratios were calculated using the following formula:
BRET ratio mBU= AcceptorSDonorS-AcceptorNTDonorNT
Where AcceptorS is the luminescence intensity of the sample well at 550 nm, DonorS is the luminescence of the sample well at 450 nm, and AcceptorNT and DonorNT are the luminescence of the no-tracer control at 550 nm and 450 nm respectively.

PKLwt = PKLwt (Homo sapiens, UniProt P30613); test: Fluorescence indicator displacement (FID) competition assay
Protocol: Additionally, we performed fluorescence competition assays with these competitors against IV, using recombinant PKLwt (Figure 6b). […] A combined 2x PKL-tracer IV solution was prepared in Tris-HCl buffer containing 1% DMSO, with final concentrations of 0.2 µM PKL and 0.1 µM tracer IV.

[6] = K D SPR (PKL), 20 °C, mean ± SE n=3

T1 sequence (P14618 whole entry): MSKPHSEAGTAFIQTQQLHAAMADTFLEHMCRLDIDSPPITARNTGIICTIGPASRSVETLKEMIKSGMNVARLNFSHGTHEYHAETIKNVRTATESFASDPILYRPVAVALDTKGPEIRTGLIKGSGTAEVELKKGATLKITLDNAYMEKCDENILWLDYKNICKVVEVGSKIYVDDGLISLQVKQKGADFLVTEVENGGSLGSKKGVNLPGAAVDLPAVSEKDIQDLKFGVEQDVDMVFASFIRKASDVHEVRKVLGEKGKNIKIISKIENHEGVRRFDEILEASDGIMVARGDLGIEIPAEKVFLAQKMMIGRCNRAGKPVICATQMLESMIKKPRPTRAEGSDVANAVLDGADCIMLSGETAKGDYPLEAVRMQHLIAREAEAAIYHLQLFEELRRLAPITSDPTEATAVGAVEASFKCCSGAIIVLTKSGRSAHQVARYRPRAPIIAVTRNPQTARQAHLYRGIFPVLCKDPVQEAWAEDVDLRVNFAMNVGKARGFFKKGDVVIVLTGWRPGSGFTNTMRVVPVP
T2 sequence (P30613 1-543 isoform P30613-2): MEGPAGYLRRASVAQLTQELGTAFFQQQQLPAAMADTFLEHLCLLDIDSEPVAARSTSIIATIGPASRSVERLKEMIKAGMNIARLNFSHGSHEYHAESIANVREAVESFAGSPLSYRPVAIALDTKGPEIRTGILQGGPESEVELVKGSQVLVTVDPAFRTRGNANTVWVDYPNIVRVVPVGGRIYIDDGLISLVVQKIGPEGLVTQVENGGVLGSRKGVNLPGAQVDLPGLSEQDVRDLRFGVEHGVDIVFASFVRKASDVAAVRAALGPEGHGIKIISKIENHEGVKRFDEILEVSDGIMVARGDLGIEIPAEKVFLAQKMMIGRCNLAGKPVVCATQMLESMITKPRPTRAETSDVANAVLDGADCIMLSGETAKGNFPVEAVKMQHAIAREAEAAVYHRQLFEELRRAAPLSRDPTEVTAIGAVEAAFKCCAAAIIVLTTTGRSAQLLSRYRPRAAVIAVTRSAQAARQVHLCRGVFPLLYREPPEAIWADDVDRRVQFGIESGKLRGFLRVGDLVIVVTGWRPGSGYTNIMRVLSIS
Sequence of PKLNluc (P30613 1-543 isoform P30613-2): as above
Sequence of PKLwt (P30613 1-543 isoform P30613-2): as above

Compound	PKM2 E max (PKM2 [1])	EC50 (PKM2 [1]) [nM]	Kd (PKL [2]; [6]) [nM]	koff (PKL [2]) [s⁻¹]	kon (PKL [2]) [M⁻¹ s⁻¹]	Kd (PKM2 [3]) [nM]	PKL activities (% of vehicle) 0.1 µM (PKL [4])	PKL activities (% of vehicle) 1 µM (PKL [4])	PKL activities (% of vehicle) 10 µM (PKL [4])	EC50 (PKL [5]) [nM]	PKL E max (PKL [5])	solubility (Solubility)	K D (SPR, PKM2) (PKM2 [3])	other results
O=c1c2ccc(S(=O)(=O)c3ccccc3)cc2cnn1Cc1ccccc1 [Compound I, 2-Benzyl-6-(phenylsulfonyl)phthalazin-1(2H)-one, reference compound]	596 % of vehicle	25	133 ± 8	0.00533	41200	33 ± 1	115 ± 2 % of vehicle	189 ± 3 % of vehicle	330 ± 3 % of vehicle	15	162 % vehicle			koff (PKM2 [3]; read-out: k off SPR (PKM2)): < 0.00055 s⁻¹; kon (PKM2 [3]; read-out: k on SPR (PKM2)): 4500 M⁻¹ s⁻¹
CN(C)c1ccc(S(=O)(=O)c2ccc3c(=O)n(Cc4ccccc4)ncc3c2)c2nonc12 [Compound II, 2-Benzyl-6-((7-(dimethylamino)benzo[c][1,2,5]oxadiazol-4-yl)sulfonyl)phthalazin-1(2H)-one]	572 % of vehicle		36200 ± 289	0.00833	167	> 100000	112 ± 1 % of vehicle	126 ± 1 % of vehicle	133 ± 6 % of vehicle	700	120 % vehicle	poor	no detectable binding	weaker PKL affinity relative to compound I (PKL [2]; SPR K D ratio): 250 fold
CN(C)c1ccc(S(=O)(=O)c2ccc3c(=O)n(CC(C)(C)C)ncc3c2)c2nonc12 [Compound III, 6-((7-(Dimethylamino)benzo[c][1,2,5]oxadiazol-4-yl)sulfonyl)-2-neopentylphthalazin-1(2H)-one]	323 % of vehicle	> 10000	> 100000			> 100000				86000	50 ^a) % vehicle	poor	no detectable binding	K D SPR (PKL) (PKL [2]; 20 °C, mean ± SE n=3): no binding; effect on PKL at higher concentrations (PKL [5]; >50 µM): weak inhibition
Nc1cccc(S(=O)(=O)N2CCCN(S(=O)(=O)c3ccc4c(c3)OCCO4)CC2)c1 [DASA-58, reference compound]														Kd (PKL [2]; K D (SPR, PKL), 20 °C, recombinant PKL): 170 nM; EC50 (PKLNluc; 2 h 37 °C, live HEK293, Figure 6a, read-out: EC50 displacement of tracer IV): 512 nM; Kd (PKLNluc; Figure 6, read-out: K D (cell), Cheng–Prusoff corrected): 245 nM; EC50 (PKLwt): 394 nM; Kd (PKLwt): 179 nM
